Assay results reported in patent US20220339180A1, “Methods And Compositions For Treating Viral Diseases Using Combination Of Drugs” (priority 2021, published 2022).
Where two headings read alike, the source gives them in different places.

Legend:
[1] = target: CoV-2 RdRp (Severe acute respiratory syndrome coronavirus 2, UniProt P0DTD1); format: biochemical, SARS-CoV-2
[2] = target: T1, human Akt2 (Homo sapiens, UniProt P31751); test: ADP-Glo Kinase assay, human Akt2; format: biochemical; conditions: 500 nM compound, excess of ATP
[3] = target: T1, human Akt2; conditions: read-out: Km for ATP; human Akt2, previously reported studies; cited from earlier work
[4] = test system: SARS-CoV-2; format: cell-based
[5] = substrate: Nc1ncnc2c1ncn2[C@@H]1O[C@H](COP(=O)(O)OP(=O)(O)OP(=O)(O)O)[C@@H](O)[C@H]1O; test: purified protein, by the assay type; conditions: other: human Akt2

CC(Cc1ccc(O)c(O)c1)C(C)Cc1ccc(O)c(O)c1 (stereo not drawn) [compound 4534, Nordihydroguaiaretic acid]
inhibition of kinase like activity of CoV-2 RdRp [1]: failed to inhibit

NC(=O)c1ncn([C@@H]2O[C@H](COP(=O)(O)OP(=O)(O)OP(=O)(O)O)[C@@H](O)[C@H]2O)n1 [compound 122108, Ribavirin 5′-triphosphate]
inhibition of kinase like activity of CoV-2 RdRp ([1]; 500 nM compound, excess of ATP): very little effects
inhibition of kinase like activity of CoV-2 RdRp ([1]; 1000 nM compound): conspicuous inhibitions

CN(C)S(=O)(=O)c1ccc2c(c1)/C(=C/c1cc3c([nH]1)CCCC3)C(=O)N2 [SU6656]
inhibition of kinase like activity of CoV-2 RdRp [1]: significantly abrogated
inhibition of kinase activity of human Akt2 [2]: significantly inhibited

Nc1ncnc2c1ncn2[C@@H]1O[C@H](COP(=O)(O)OP(=O)(O)OP(=O)(O)O)[C@@H](O)[C@H]1O [ATP, Adenosine triphosphate]
Km [3]: ~350 µM

CNC(=O)c1cc(Oc2ccc(NC(=O)Nc3ccc(Cl)c(C(F)(F)F)c3)cc2)ccn1 [Sorafenib]
cell survival of SARS-CoV-2 infected epithelial cells ([4]; 1, 5, 25 and 50 μM, concentrations similar to Remdesivir): improves cell survival
reduction in the infection ([4]; 1-50 μM, Remdesivir as control): significant reduction in the infection
clearing of virus from infected cells, single agent ([4]; Sorafenib 4 μM or remdesivir 1 μM alone): have effect to clear the virus
viral load ([4]; ex-vivo SARS-CoV-2 infection in cell line): significantly reduces viral load
inhibition of kinase activity of human Akt2 [2]: significantly inhibited

B1: human Akt2 (Homo sapiens) (protein)
chain: MNEVSVIKEGWLHKRGEYIKTWRPRYFLLKSDGSFIGYKERPEAPDQTLPPLNNFSVAECQLMKTERPRPNTFVIRCLQWTTVIERTFHVDSPDEREEWMRAIQMVANSLKQRAPGEDPMDYKCGSPSDSSTTEEMEVAVSKARAKVTMNDFDYLKLLGKGTFGKVILVREKATGRYYAMKILRKEVIIAKDEVAHTVTESRVLQNTRHPFLTALKYAFQTHDRLCFVMEYANGGELFFHLSRERVFTEERARFYGAEIVSALEYLHSRDVVYRDIKLENLMLDKDGHIKITDFGLCKEGISDGATMKTFCGTPEYLAPEVLEDNDYGRAVDWWGLGVVMYEMMCGRLPFYNQDHERLFELILMEEIRFPRTLSPEAKSLLAGLLKKDPKQRLGGGPSDAKEVMEHRFFLSINWQDVVQKKLLPPFKPQVTSEVDTRYFDDEFTAQSITITPPDRYDSLGLLELDQRTHFPQFSYSASIRE
Km [5]: 300 µM
